Test results taken from ChEMBL document CHEMBL1148826, “Substituted 6-(1-pyrrolidine)quinolin-2(1H)-ones as novel selective androgen receptor modulators” (J Med Chem, 2007).
pEC50, pIC50, pKi: −log10 of the molar value.

How the values were obtained:
Androgen receptor [1] = target: T1, Androgen receptor (Homo sapiens, UniProt P10275)
T1 sequence (P10275 whole entry): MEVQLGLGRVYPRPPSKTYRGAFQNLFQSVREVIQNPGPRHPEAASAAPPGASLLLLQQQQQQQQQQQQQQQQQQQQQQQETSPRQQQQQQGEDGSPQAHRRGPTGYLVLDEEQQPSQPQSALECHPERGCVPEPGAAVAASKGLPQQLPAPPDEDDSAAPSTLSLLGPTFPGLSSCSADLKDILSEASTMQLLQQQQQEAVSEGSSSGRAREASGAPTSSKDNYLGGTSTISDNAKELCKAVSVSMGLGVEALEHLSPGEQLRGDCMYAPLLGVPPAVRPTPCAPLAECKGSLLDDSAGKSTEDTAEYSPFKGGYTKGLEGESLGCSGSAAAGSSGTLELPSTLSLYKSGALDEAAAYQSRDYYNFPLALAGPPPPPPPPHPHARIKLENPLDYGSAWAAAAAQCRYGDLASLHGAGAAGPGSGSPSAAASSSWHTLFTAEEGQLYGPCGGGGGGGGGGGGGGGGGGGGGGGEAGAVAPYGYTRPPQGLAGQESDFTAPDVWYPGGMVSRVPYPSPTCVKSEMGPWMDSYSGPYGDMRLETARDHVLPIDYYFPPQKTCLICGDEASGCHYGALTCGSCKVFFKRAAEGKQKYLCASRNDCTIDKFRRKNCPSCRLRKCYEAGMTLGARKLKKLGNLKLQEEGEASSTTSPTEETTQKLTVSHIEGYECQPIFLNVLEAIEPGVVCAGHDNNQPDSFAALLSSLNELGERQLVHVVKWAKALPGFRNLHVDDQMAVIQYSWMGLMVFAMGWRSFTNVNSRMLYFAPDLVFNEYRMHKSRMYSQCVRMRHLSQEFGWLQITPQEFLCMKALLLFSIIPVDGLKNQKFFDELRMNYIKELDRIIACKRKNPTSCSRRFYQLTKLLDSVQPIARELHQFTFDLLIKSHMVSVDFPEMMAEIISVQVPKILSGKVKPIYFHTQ
Description: Antagonist activity at human androgen receptor by luciferase reporter gene assay

[2] = Bioavailability in Sprague-Dawley rat at 14.6 mg/kg, po; assay type: ADME, organism-based; details: in vivo
Progesterone receptor = target: T2, Progesterone receptor (Homo sapiens, UniProt P06401); assay: Binding affinity to PR
T2 sequence (P06401 whole entry): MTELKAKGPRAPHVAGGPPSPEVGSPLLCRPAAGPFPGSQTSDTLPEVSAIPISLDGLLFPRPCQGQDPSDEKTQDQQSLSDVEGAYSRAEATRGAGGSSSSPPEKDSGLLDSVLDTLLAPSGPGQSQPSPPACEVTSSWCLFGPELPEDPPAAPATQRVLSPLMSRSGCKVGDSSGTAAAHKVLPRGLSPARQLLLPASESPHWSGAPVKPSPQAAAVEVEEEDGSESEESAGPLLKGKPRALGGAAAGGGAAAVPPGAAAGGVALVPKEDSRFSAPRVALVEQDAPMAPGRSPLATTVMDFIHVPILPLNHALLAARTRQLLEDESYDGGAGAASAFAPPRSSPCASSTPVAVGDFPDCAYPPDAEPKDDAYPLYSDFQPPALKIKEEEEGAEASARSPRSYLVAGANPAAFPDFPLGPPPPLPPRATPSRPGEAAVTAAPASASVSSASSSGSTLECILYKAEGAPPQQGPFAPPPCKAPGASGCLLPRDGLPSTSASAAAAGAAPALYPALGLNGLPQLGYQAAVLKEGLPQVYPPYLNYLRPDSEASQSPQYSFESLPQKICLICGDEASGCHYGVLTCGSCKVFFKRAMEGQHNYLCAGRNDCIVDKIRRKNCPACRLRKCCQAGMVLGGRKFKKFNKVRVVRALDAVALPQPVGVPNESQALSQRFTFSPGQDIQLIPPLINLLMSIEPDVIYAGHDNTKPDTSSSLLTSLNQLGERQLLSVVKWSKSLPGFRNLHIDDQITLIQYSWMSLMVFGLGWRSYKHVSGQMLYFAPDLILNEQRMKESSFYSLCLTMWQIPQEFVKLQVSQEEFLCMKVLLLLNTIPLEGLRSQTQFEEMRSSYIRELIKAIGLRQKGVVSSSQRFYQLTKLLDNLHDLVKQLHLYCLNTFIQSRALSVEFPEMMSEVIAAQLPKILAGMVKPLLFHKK

[3] = Half life in Sprague-Dawley rat at 2.5 mg/kg, iv; assay type: ADME, organism-based; design: dose 2.5 mg/kg, route intravenous; details: in vivo
[4] = AUC (0 to infinity) in Sprague-Dawley rat at 14.6 mg/kg, po; assay type: ADME, organism-based; design: time infinity, dose 14.6 mg/kg, route oral; details: plasma
[5] = Anabolic effect as increased levator ani muscle weight in orchidectomized rat model at doses > 1 mg/kg; assay type: functional, organism-based; design: dose 1 mg/kg
[6] = target: T3, Mineralocorticoid receptor (Homo sapiens, UniProt P08235); assay: Binding affinity to MR
T3 sequence (P08235 whole entry): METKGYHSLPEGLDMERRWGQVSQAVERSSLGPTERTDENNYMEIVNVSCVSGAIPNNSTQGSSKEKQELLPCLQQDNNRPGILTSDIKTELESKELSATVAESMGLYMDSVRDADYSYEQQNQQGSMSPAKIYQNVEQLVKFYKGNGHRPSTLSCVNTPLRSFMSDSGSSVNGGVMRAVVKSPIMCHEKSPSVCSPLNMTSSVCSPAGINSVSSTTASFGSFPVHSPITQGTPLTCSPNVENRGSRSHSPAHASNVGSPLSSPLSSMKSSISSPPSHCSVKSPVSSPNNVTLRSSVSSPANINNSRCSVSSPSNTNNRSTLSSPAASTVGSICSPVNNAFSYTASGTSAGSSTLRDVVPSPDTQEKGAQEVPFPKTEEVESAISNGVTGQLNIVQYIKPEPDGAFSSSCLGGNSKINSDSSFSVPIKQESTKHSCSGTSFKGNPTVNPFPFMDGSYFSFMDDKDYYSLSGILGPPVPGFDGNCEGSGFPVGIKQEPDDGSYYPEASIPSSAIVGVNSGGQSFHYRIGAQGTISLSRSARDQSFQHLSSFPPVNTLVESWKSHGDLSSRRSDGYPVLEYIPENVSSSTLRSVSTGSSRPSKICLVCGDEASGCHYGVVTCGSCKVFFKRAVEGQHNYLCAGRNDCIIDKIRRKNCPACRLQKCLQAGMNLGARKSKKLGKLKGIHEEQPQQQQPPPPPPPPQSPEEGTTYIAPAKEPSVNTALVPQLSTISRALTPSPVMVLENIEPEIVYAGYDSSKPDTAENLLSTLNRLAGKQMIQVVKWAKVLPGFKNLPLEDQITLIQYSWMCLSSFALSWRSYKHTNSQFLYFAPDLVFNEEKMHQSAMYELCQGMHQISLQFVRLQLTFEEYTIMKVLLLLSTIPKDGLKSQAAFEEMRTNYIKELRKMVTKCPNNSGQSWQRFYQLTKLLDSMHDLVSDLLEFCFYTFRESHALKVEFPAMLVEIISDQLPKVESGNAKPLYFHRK

Estrogen receptor = target: T4, Estrogen receptor (Homo sapiens, UniProt P03372); assay: Binding affinity to ERalpha
T4 sequence (P03372 whole entry): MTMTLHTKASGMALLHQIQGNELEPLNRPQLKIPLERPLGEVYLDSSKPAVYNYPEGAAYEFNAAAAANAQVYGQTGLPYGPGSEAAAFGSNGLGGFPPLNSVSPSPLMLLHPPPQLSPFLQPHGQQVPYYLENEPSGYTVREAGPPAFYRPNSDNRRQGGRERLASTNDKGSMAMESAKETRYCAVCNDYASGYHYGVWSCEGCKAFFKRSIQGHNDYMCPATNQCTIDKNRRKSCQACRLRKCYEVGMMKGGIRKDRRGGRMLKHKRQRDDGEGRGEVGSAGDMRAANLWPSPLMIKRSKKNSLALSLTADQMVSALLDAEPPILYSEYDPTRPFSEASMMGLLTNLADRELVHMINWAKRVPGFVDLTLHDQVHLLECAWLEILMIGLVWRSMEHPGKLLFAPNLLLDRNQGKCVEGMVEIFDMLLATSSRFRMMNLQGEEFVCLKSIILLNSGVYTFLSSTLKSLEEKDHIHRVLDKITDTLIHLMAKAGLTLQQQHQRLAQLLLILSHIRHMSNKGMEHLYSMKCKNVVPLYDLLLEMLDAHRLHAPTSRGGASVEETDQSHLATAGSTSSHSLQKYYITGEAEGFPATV

Androgen receptor [7] = target: T1, Androgen receptor; remark: listed apart in the source
Description: Binding affinity to human AR

Glucocorticoid receptor = target: T5, Glucocorticoid receptor (Homo sapiens, UniProt P04150); assay: Binding affinity to GR
T5 sequence (P04150 whole entry): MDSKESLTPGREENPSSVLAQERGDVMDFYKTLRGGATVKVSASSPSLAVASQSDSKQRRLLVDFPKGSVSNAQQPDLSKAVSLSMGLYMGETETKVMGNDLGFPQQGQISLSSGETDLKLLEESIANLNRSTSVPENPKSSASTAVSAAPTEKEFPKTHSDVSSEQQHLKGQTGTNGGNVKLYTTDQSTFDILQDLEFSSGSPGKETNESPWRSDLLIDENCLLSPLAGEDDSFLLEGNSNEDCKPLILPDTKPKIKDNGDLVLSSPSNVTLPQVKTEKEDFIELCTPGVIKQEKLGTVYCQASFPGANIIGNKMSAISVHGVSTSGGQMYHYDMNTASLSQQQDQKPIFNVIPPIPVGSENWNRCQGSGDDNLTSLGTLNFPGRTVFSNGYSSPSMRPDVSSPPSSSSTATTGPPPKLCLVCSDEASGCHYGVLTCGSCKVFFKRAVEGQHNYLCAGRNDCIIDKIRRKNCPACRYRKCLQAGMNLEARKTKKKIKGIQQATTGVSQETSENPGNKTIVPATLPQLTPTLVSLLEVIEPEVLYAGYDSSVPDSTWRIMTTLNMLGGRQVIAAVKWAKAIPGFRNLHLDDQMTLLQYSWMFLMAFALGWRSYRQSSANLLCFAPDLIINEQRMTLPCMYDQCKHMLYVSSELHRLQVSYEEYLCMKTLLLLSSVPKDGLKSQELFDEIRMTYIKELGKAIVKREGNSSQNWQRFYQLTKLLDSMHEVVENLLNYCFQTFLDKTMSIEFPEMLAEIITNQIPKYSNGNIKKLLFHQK

Androgen receptor [8] = target: T1, Androgen receptor; remark: listed apart in the source
Description: Agonist activity at human androgen receptor by luciferase reporter gene assay

[9] = AUC (0 to infinity) in Sprague-Dawley rat at 10 mg/kg, po; assay type: ADME, organism-based; design: time infinity, dose 10 mg/kg, route oral; details: plasma
[10] = Bioavailability in Sprague-Dawley rat at 10 mg/kg, po; assay type: ADME, organism-based; details: in vivo

With `C[C@@H]1CC[C@H]([C@@H](O)C(F)(F)F)N1c1ccc2[nH]c(=O)cc(C(F)(F)F)c2c1` [LGD-2941] the pIC50 (Androgen receptor [1]) was < 5.00, the bioavailability [2] was 100% and the pKi (Progesterone receptor) was 5.60. The half-life [3] was 2.7 h, the AUC(0-inf) [4] was 11800 ng·h/mL and the Anabolic activity [5] was “Anabolic”. For the same compound, the pKi [6] was < 5.00, the pKi (Estrogen receptor) was < 5.00 and the pKi (Androgen receptor [7]) was 8.82. For the same compound, the pKi (Glucocorticoid receptor) was 5.08 and the pEC50 (Androgen receptor [8]) was 8.15.
With `C[C@@H]1CC[C@H](CO)N1c1ccc2[nH]c(=O)cc(C(F)(F)F)c2c1` the pIC50 (Androgen receptor [1]) was < 5.00, the pKi (Androgen receptor [7]) was 7.15 and the pEC50 (Androgen receptor [8]) was 7.68.
In the case of `C[C@@H]1CC[C@H](CCl)N1c1ccc2[nH]c(=O)cc(C(F)(F)F)c2c1`, the pIC50 (Androgen receptor [1]) was < 5.00, the pKi (Androgen receptor [7]) was 8.00 and the pEC50 (Androgen receptor [8]) was 7.92.
For `O=c1cc(C(F)(F)F)c2cc(N3CCCC3)ccc2[nH]1`, the pIC50 (Androgen receptor [1]) was 7.60, the pKi (Androgen receptor [7]) was 5.77 and the pEC50 (Androgen receptor [8]) was < 5.00.
In the case of `C[C@@H]1CC[C@H]([C@H](O)C(F)(F)F)N1c1ccc2[nH]c(=O)cc(C(F)(F)F)c2c1`, the pIC50 (Androgen receptor [1]) was < 5.00, the pKi (Androgen receptor [7]) was 8.12 and the pEC50 (Androgen receptor [8]) was 8.08.
In the case of `C[C@@H]1CC[C@H](C)N1c1ccc2[nH]c(=O)cc(C(F)(F)F)c2c1`, the pIC50 (Androgen receptor [1]) was < 5.00, the pKi (Androgen receptor [7]) was 7.72 and the pEC50 (Androgen receptor [8]) was 8.59.
In the case of `CC1CCCN1c1ccc2[nH]c(=O)cc(C(F)(F)F)c2c1` (racemic), the pIC50 (Androgen receptor [1]) was < 5.00 and the pKi (Androgen receptor [7]) was 7.14.
With `C[C@@H]1CC[C@@H](C)N1c1ccc2[nH]c(=O)cc(C(F)(F)F)c2c1` (racemic) the pIC50 (Androgen receptor [1]) was < 5.00, the pKi (Androgen receptor [7]) was 7.37 and the pEC50 (Androgen receptor [8]) was 7.32.
Compound `O=c1cc(C(F)(F)F)c2cc(N(CC(F)(F)F)CC(F)(F)F)ccc2[nH]1` has a half-life [3] of 1.7 h, an AUC(0-inf) [9] of 3150 ng·h/mL and a bioavailability [10] of 43%.
